Laboratory results taken from patent US11590116B2 (THERAVANCE BIOPHARMA R&D IP, LLC, priority 2019, dated 2023).

What was measured:
[1] = target: T1, recombinant human ALK5 (TGF-βR1) protein (Homo sapiens, UniProt P36897); assay: Biochemical ALK5 (TGF-βR1) assay to measure pKi (LANCE Ultra ULight kinase assay); conditions: apparent pKi from pIC50 by Cheng-Prusoff, read-out: ALK5 pKi (converted)
T1 construct: purchased Life Technologies PR9075A
T1 sequence (P36897 34-503): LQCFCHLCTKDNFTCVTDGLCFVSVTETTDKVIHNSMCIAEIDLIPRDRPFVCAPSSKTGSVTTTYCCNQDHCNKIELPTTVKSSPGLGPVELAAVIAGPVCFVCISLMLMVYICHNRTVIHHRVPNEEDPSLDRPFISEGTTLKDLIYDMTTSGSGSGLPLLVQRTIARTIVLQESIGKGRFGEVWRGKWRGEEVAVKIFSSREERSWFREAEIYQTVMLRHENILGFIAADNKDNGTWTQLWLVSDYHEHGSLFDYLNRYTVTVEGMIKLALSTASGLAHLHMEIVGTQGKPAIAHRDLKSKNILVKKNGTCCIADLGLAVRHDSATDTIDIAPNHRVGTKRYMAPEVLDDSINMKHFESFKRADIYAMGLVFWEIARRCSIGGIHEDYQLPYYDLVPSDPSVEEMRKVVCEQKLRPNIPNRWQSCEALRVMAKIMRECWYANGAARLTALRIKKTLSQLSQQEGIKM
How it was run: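 Compounds (10 μM to 25 pM) were preincubated 60 min at room temperature with enzyme, then reactions were started with ATP (125 μM stock, 5× final) and run 60 min at 37 °C. EDTA-containing Eu-anti-phospho-Topo IIα (Thr1342) antibody stopped the reaction; TR-FRET read at 665 nm. pIC50 from 4-parameter fit, converted to pKi via Cheng-Prusoff.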

[2] = test system: TGF-β-stimulated SMAD3 phosphorylation in BEAS-2B cells; assay: Cellular ALK5 potency assay, inhibition of TGF-β stimulated pSMAD3 formation in BEAS-2B cells; type: cell-based; conditions: Homo sapiens; inhibition of TGF-β stimulated pSMAD3 formation, BEAS-2B cells; read-out: BEAS2B pIC50 (converted)
How it was run: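 BEAS-2B human lung epithelial cells pre-treated 1 h at 37° C with compound in HBSS/25 mM HEPES/1% BSA, then stimulated 30 min with 10 ng/mL TGF-β (final). Lysates assayed for pSMAD3 by AlphaLISA; pIC50 from dose-dependent change versus stimulated untreated cells.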

Row | Ki [1] [nM] | Compound | IC50 [2] [nM]
1 | 0.0398 to 0.316 | Cc1cccc(-c2[nH]cnc2-c2ccc3ncc(C(=O)OCCC4CNC4)cc3c2)n1 [Compound 761, 2-(azetidin-3-yl)ethyl 6-[5-(6-methyl-2-pyridyl)-1H-imidazol-4-yl]quinoline-3-carboxylate] | 200 to 1260
2 | 0.398 to 3.16 | Cc1cccc(-c2[nH]cnc2-c2ccc3ncc(C(=O)OC[C@@H]4CCCN4)cc3c2)n1 [Compound 762, [(2S)-pyrrolidin-2-yl]methyl 6-[5-(6-methyl-2-pyridyl)-1H-imidazol-4-yl]quinoline-3-carboxylate] | 25.1 to 158
3 | 0.0398 to 0.316 | Cc1cccc(-c2[nH]cnc2-c2ccc3ncc(C(=O)O[C@H]4CC[C@H](N)CC4)cc3c2)n1 [Compound 763, (4-aminocyclohexyl) 6-[5-(6-methyl-2-pyridyl)-1H-imidazol-4-yl]quinoline-3-carboxylate] | 25.1 to 158
4 | 0.0398 to 0.316 | Cc1cccc(-c2[nH]cnc2-c2ccc3ncc(C4=CC[C@H](NC(=O)[C@@H]5CCC(=O)N5)CC4)cc3c2)n1 [Compound 764, (2S)-N-[(1R)-4-[6-[5-(6-methyl-2-pyridyl)-1H-imidazol-4-yl]-3-quinolyl]cyclohex-3-en-1-yl]-5-oxo-pyrrolidine-2-carboxamide] | 200 to 1260
5 | 0.0398 to 0.316 | Cc1cccc(-c2[nH]cnc2-c2ccc3ncc(C(=O)OC[C@H]4CC[C@H](N)CC4)cc3c2)n1 [Compound 765, (4-aminocyclohexyl)methyl 6-[5-(6-methyl-2-pyridyl)-1H-imidazol-4-yl]quinoline-3-carboxylate] | 25.1 to 158
6 | 0.0398 to 0.316 | Cc1cccc(-c2[nH]cnc2-c2ccc3ncc(C(=O)O[C@H]4CC[C@@](C)(N)CC4)cc3c2)n1 [Compound 768, (4-amino-4-methyl-cyclohexyl) 6-[5-(6-methyl-2-pyridyl)-1H-imidazol-4-yl]quinoline-3-carboxylate] | 25.1 to 158
7 | 0.0398 to 0.316 | Cc1cccc(-c2[nH]cnc2-c2ccc3ncc(C(=O)OC[C@H]4CC[C@@H](N)CC4)cc3c2)n1 [Compound 770, (4-aminocyclohexyl)methyl 6-[5-(6-methyl-2-pyridyl)-1H-imidazol-4-yl]quinoline-3-carboxylate] | 25.1 to 158
8 | 0.0398 to 0.316 | Cc1cccc(-c2[nH]cnc2-c2ccc3ncc(C(=O)O[C@H]4CC[C@](C)(N)CC4)cc3c2)n1 [Compound 771, (4-amino-4-methyl-cyclohexyl) 6-[5-(6-methyl-2-pyridyl)-1H-imidazol-4-yl]quinoline-3-carboxylate] | 25.1 to 158
9 | 0.0398 to 0.316 | Cc1cccc(-c2[nH]cnc2-c2ccc3ncc(C(=O)OC[C@H]4CCCNC4)cc3c2)n1 [Compound 772, [(3S)-3-piperidyl]methyl 6-[5-(6-methyl-2-pyridyl)-1H-imidazol-4-yl]quinoline-3-carboxylate] | 25.1 to 158
10 | 0.0398 to 0.316 | Cc1cccc(-c2[nH]cnc2-c2ccc3ncc(C(=O)OC4CCCCNC4)cc3c2)n1 (stereo not shown) [Compound 773, azepan-3-yl 6-[5-(6-methyl-2-pyridyl)-1H-imidazol-4-yl]quinoline-3-carboxylate] | 25.1 to 158
11 | 0.0398 to 0.316 | Cc1cccc(-c2[nH]cnc2-c2ccc3ncc(C4=CC[C@@H](NC(=O)[C@@H]5CCCN5)CC4)cc3c2)n1 [Compound 775, (2S)-N-[(1S)-4-[6-[5-(6-methyl-2-pyridyl)-1H-imidazol-4-yl]-3-quinolyl]cyclohex-3-en-1-yl]pyrrolidine-2-carboxamide] | 25.1 to 158
12 | 0.0398 to 0.316 | Cc1cccc(-c2[nH]cnc2-c2ccc3ncc(C4=CC[C@H](NC(=O)[C@H]5CCCN5)CC4)cc3c2)n1 [Compound 776, (2R)-N-[(1R)-4-[6-[5-(6-methyl-2-pyridyl)-1H-imidazol-4-yl]-3-quinolyl]cyclohex-3-en-1-yl]pyrrolidine-2-carboxamide] | 25.1 to 158
13 | 0.0398 to 0.316 | Cc1cccc(-c2[nH]cnc2-c2ccc3ncc(C4=CC[C@@H](NC(=O)[C@H]5CCCN5)CC4)cc3c2)n1 [Compound 777, (2R)-N-[(1S)-4-[6-[5-(6-methyl-2-pyridyl)-1H-imidazol-4-yl]-3-quinolyl]cyclohex-3-en-1-yl]pyrrolidine-2-carboxamide] | 25.1 to 158
14 | 0.0398 to 0.316 | Cc1cccc(-c2[nH]cnc2-c2ccc3ncc(C4=CCN(C(=O)C5CCNCC5)CC4)cc3c2)n1 [Compound 778, [4-[6-[5-(6-methyl-2-pyridyl)-1H-imidazol-4-yl]-3-quinolyl]-3,6-dihydro-2H-pyridin-1-yl]-(4-piperidyl)methanone] | 25.1 to 158
15 | 0.0398 to 0.316 | Cc1cccc(-c2[nH]cnc2-c2ccc3ncc(C4=CCN(C(=O)[C@@H]5CCCN5)CC4)cc3c2)n1 [Compound 779, [4-[6-[5-(6-methyl-2-pyridyl)-1H-imidazol-4-yl]-3-quinolyl]-3,6-dihydro-2H-pyridin-1-yl]-[(2S)-pyrrolidin-2-yl]methanone] | 25.1 to 158
16 | 0.398 to 3.16 | Cc1cccc(-c2[nH]cnc2-c2ccc3ncc(C(=O)O[C@@H]4CCCNC4)cc3c2)n1 [Compound 781, [(3R)-3-piperidyl] 6-[5-(6-methyl-2-pyridyl)-1H-imidazol-4-yl]quinoline-3-carboxylate] | 25.1 to 158
17 | 0.0398 to 0.316 | Cc1cccc(-c2[nH]cnc2-c2ccc3ncc(C(=O)O[C@H]4C[C@H](N)C4)cc3c2)n1 [Compound 782, (3-aminocyclobutyl) 6-[5-(6-methyl-2-pyridyl)-1H-imidazol-4-yl]quinoline-3-carboxylate] | 25.1 to 158
18 | 3.98 to 31.6 | Cc1cccc(-c2[nH]ncc2-c2ccc3ncc(C(=O)O)cc3c2)n1 [Compound 783, 6-[5-(6-methyl-2-pyridyl)-1H-pyrazol-4-yl]quinoline-3-carboxylic Acid] | 1580 to 10000
19 | 0.0398 to 0.316 | Cc1cccc(-c2[nH]ncc2-c2ccc3ncc(C(=O)OCC4CNC4)cc3c2)n1 [Compound 790, azetidin-3-ylmethyl 6-(5-(6-methylpyridin-2-yl)-1H-pyrazol-4-yl)quinoline-3-carboxylate] | 25.1 to 158
20 | 0.0398 to 0.316 | Cc1cccc(-c2[nH]cnc2-c2ccc3ncc(-c4cccc(C(=O)O)c4)cc3c2)n1 [Compound 794, 3-[6-[5-(6-methyl-2-pyridyl)-1H-imidazol-4-yl]-3-quinolyl]benzoic acid] | 1580 to 10000
21 | 0.398 to 3.16 | Cc1cccc(-c2[nH]cnc2-c2ccc3ncc(-c4cncc(C(=O)O)c4)cc3c2)n1 [Compound 795, 5-[6-[5-(6-methyl-2-pyridyl)-1H-imidazol-4-yl]-3-quinolyl]pyridine-3-carboxylic acid] | 1580 to 10000
22 | 3.98 to 31.6 | Cc1cccc(-c2[nH]cnc2-c2ccc3ncc(C(=O)O)cc3c2)n1 [Compound 796, 6-[5-(6-methyl-2-pyridyl)-1H-imidazol-4-yl]quinoline-3-carboxylic Acid] | 1580 to 10000
23 | 0.0398 to 0.316 | Cc1cccc(-c2[nH]cnc2-c2ccc3ncc(-c4nc(C(=O)O)cs4)cc3c2)n1 [Compound 797, 2-(6-(5-(6-methylpyridin-2-yl)-1H-imidazol-4-yl)quinolin-3-yl)thiazole-4-carboxylic acid] | 1580 to 10000
24 | 0.0398 to 0.316 | Cc1cccc(-c2[nH]cnc2-c2ccc3ncc(-c4csc(C(=O)O)c4)cc3c2)n1 [Compound 798, 4-(6-(5-(6-methylpyridin-2-yl)-1H-imidazol-4-yl)quinolin-3-yl)thiophene-2-carboxylic acid] | 1580 to 10000
25 | 0.0398 to 0.316 | Cc1cccc(-c2[nH]cnc2-c2ccc3ncc(-c4ccnc(C(=O)OC5CCNCC5)c4)cc3c2)n1 [Compound 799, 4-piperidyl 4-[6-[5-(6-methyl-2-pyridyl)-1H-imidazol-4-yl]-3-quinolyl]pyridine-2-carboxylate] | 200 to 1260
26 | 0.0398 to 0.316 | CCOC(=O)c1ccnc2ccc(-c3c[nH]nc3-c3cccc(C)n3)nc12 [Compound 800, ethyl 6-[3-(6-methyl-2-pyridyl)-1H-pyrazol-4-yl]-1,5-naphthyridine-4-carboxylate] | 25.1 to 158
27 | 0.398 to 3.16 | Cc1cccc(-c2n[nH]cc2-c2ccc3nccc(CO)c3n2)n1 [Compound 801, [6-[3-(6-methyl-2-pyridyl)-1H-pyrazol-4-yl]-1,5-naphthyridin-4-yl]methanol] | 200 to 1260
28 | 0.0398 to 0.316 | Cc1cccc(-c2n[nH]cc2-c2ccc3nccc(C(=O)NCCN4CCOCC4)c3n2)n1 [Compound 802, 6-[3-(6-methyl-2-pyridyl)-1H-pyrazol-4-yl]-N-(2-morpholinoethyl)-1,5-naphthyridine-4-carboxamide] | 200 to 1260

Row | Compound | Ki [1] [nM] | IC50 [2] [nM]
29 | Cc1cccc(-c2[nH]cnc2-c2ccc3ncc(C(=O)OCC45CCC(CC4)N5)cc3c2)n1 [Compound 780, 7-azabicyclo[2.2.1]heptan-1-ylmethyl 6-[5-(6-methyl-2-pyridyl)-1H-imidazol-4-yl]quinoline-3-carboxylate] | 0.398 to 3.16 | 25.1 to 158
